# Legend:
# [1] = target: full-length PknG with natural substrate GarA (Mycobacterium tuberculosis, UniProt P9WI73); experiment: Kinase Glo Plus luminescent end point inhibition assay; assay type: biochemical; conditions: tethered docking compounds assayed at 40 μM
# PknGΔTPRΔ73 mutant V235P = PknGΔTPRΔ73 mutant V235P (Mycobacterium tuberculosis, UniProt P9WI73, V235P); assay type: binding; conditions: 100 µM
# PknGΔTPRΔ73 mutant I292G = PknGΔTPRΔ73 mutant I292G (Mycobacterium tuberculosis, UniProt P9WI73, I292G); assay type: binding; conditions: 100 µM
# PknGΔTPRΔ73 mutant Y234L = PknGΔTPRΔ73 mutant Y234L (Mycobacterium tuberculosis, UniProt P9WI73, Y234L); assay type: binding; conditions: 100 µM
Compound,kinase activity [1],shift in the melting temperature (PknGΔTPRΔ73 mutant V235P),shift in the melting temperature (PknGΔTPRΔ73 mutant I292G),shift in the melting temperature (PknGΔTPRΔ73 mutant Y234L)
CCN1CCCC1CNC(=O)Nc1sc2c(c1C(N)=O)CCCC2 (stereo not drawn) [T3],considerably diminished kinase activity,–,–,–
NC(=O)c1c(NC(=O)NCC2CCCO2)sc2c1CCCC2 (stereo not drawn) [T2],considerably diminished kinase activity,–,–,–
CC(C)c1ccc(C(=O)c2c(N)c(C(N)=O)c3ccccn23)cc1 [T1],considerably diminished kinase activity,–,–,–
NC(=O)c1c(N)c(C(=O)c2ccc(F)cc2)n2ccccc12 [B1],–,no shift,no shift,no shift
